Laboratory results taken from patent publication US20120136050A1, “USE OF A MELATONIN AGONIST FOR THE TREATMENT OF SLEEP DISORDERS INCLUDING PRIMARY INSOMNIA” (VANDA PHARMACEUTICALS INC., priority 2009, published 2012).
“Also recorded” adds a separate entry of the source.

What was measured:
[1] = tested on: patients with chronic primary insomnia; assay: Phase III placebo-controlled 4-week trial in chronic primary insomnia (PSG); assay type: in vivo, human; conditions: for fell asleep faster than placebo group (PSG): first night of treatment, p<0.001
Method: A phase III, multi-center, placebo-controlled, 4-week trial evaluated 322 patients with chronic primary insomnia. Patients were randomized to receive either 20 mg or 50 mg of Compound A or placebo over the course of four weeks. The primary endpoint consisted of the evaluation of the immediate and short-term (average of Nights 1 and 8) ability of Compound A to improve sleep onset as measured by Latency to Persistent Sleep (LPS) through polysomnography (PSG). Secondary endpoints evaluated Compound A's ability to maintain improvements on sleep onset after long-term (average of Nights 22 and 29) use of the compound as well as measures of sleep duration (Total Sleep Time, TST) and sleep maintenance (Wake After Sleep Onset, WASO). Patients were eligible for the study if symptoms of insomnia were chronic and LPS was greater than 30 minutes.

[2] = tested on: healthy male and female subjects with induced transient insomnia; assay: Example 2: single oral dose study in induced transient insomnia (PSG); assay type: in vivo, human
Method: A multi-center, randomized, double-blind, placebo-controlled, parallel-group study was conducted to investigate the efficacy and safety of single oral doses of VEC-162 (20 mg, 50 mg, and 100 mg) and matching placebo in healthy male and female subjects with induced transient insomnia. Approximately four hundred subjects were randomized in approximately a 1:1:1:1 ratio to the treatment groups.
In general, a screening period began 14 to 35 days prior to the start of the evaluation period, which was Day 1. Prior to Day 1, subjects were asked to increase their sleep time to 9 hours per night. Drug, or placebo, was administered on Night 1, approximately 0.5 hour prior to lights off.
The primary efficacy variable was LPS. LPS is defined as the length of time elapsed between lights off and onset of persistent sleep. In this trial, persistent sleep is defined as the point at which 10 minutes of uninterrupted sleep has begun. Sleep was determined on the basis of polysomnography (PSG).
Wake After Sleep Onset (WASO): WASO is defined as the time spent awake between onset of sleep and Lights On during Night 1, determined by PSG.
Latency to Non-Awake (LNA): LNA is defined as the number of minutes to reach any stage of sleep.
Total Sleep Time (TST): TST is defined as the number of minutes spent asleep during the entire time in bed.

[3] = tested on: healthy volunteers; assay: Previous Phase I single and multiple ascending dose studies, safety and tolerability; assay type: in vivo
Method: (§1) A 28-day Phase II study was also conducted to investigate the effects of Compound A in elderly patients with primary insomnia. […] While patients with the lowest melatonin levels ([…]) may have benefited from Compound A treatment more than placebo, the design of this study made it difficult to interpret the effects of Compound A on the sleep-wake cycle.
(§2) The oral doses selected were based on safety and efficacy data obtained from previous Compound A pre-clinical and clinical trials. […] Though not optimally designed to assess the chronobiotic potential of Compound A, clinical trial CN116-002 measured the effects Compound A on the circadian sleep-wake cycle. […] The doses selected for the study (10 mg, 20 mg, 50 mg, and 100 mg) were within the expected dose range for efficacy. The safety of the selected doses for this study is supported by previous clinical studies. […] The highest dose in the study, 100 mg, is well within the safety margin established in both Phase I single and multiple ascending dose trials and in a Phase II study.

[4] = tested on: elderly patients with primary insomnia; assay: 28-day Phase II study in elderly patients with primary insomnia; assay type: in vivo, human
Method: as §1

[5] = tested on: circadian sleep-wake cycle; assay: Clinical trial CN116-002, effects on the circadian sleep-wake cycle; assay type: in vivo, human; conditions: 50 mg
Method: as §2

[6] = Plasma exposure after oral administration (Cmax, AUC); assay type: in vivo, human
[7] = Solubility in solvents and water; assay type: physicochemical
[8] = 20 mg, Nights 1 and 8 vs baseline, p<0.001 vs placebo
[9] = 20 mg, Nights 22 and 29 vs baseline, nss
[10] = 20 mg, Nights 22 and 29 vs baseline, p<0.001 vs placebo
[11] = 50 mg, Nights 1 and 8 vs baseline, p<0.001 vs placebo
[12] = 50 mg, Nights 22 and 29 vs baseline, nss
[13] = 50 mg single oral dose, p<0.001
[14] = single oral dose, conclusion from Examples 1 and 2

CCC(=O)NC[C@@H]1C[C@H]1c1cccc2c1CCO2 [Compound A, N-[[(1R,2R)-2-(2,3-dihydro-1-benzofuran-4-yl)cycloproply]methyl]propanamide]
tolerability and safety profile ([1]; 20 mg or 50 mg over four weeks): well-tolerated and exhibited a safety profile generally similar to placebo | mean WASO improved by ([1]; 20 mg, Nights 1 and 8 vs baseline, nss): 12.2 min | mean LPS improved by [1, 8]: 45.0 min | mean TST during the first third of the night improved by [1, 8]: 40.9 min | mean WASO during the first third of the night improved by ([1]; 20 mg, Nights 1 and 8 vs baseline, p<0.01 vs placebo): 2.3 min | mean TST improved by ([1]; 20 mg, Nights 1 and 8 vs baseline, p=0.089 vs placebo): 51.4 min | mean WASO during the first third of the night improved by [1, 9]: 3.1 min | mean WASO improved by [1, 9]: 17.7 min | mean LPS improved by [1, 10]: 49.4 min | mean TST during the first third of the night improved by [1, 10]: 45.2 min | mean TST improved by ([1]; 20 mg, Nights 22 and 29 vs baseline, p=0.057 vs placebo): 60.3 min | fell asleep faster than placebo group (PSG) ([1]; 20 mg): 22.9 min | mean WASO improved by ([1]; 50 mg, Nights 1 and 8 vs baseline, nss): 14.1 min | mean LPS improved by [1, 11]: 46.4 min | mean TST during the first third of the night improved by [1, 11]: 39.4 min | mean WASO during the first third of the night improved by ([1]; 50 mg, Nights 1 and 8 vs baseline, p<0.05 vs placebo): 1.8 min | mean TST improved by ([1]; 50 mg, Nights 1 and 8 vs baseline, p=0.074 vs placebo): 52.0 min | mean WASO during the first third of the night improved by [1, 12]: 1.8 min | mean WASO improved by [1, 12]: 10.2 min | mean TST improved by ([1]; 50 mg, Nights 22 and 29 vs baseline, nss vs placebo): 48.6 min | mean TST during the first third of the night improved by ([1]; 50 mg, Nights 22 and 29 vs baseline, p<0.01 vs placebo): 40.1 min | mean LPS improved by ([1]; 50 mg, Nights 22 and 29 vs baseline, p=0.016 vs placebo): 45.1 min | fell asleep faster than placebo group (PSG) ([1]; 50 mg): 25.9 min | Latency to Persistent Sleep (LPS): Improvement compared with placebo ([2]; 20 mg single oral dose, p<0.001): 21.5 min | Total Sleep Time (TST): Improvement compared with placebo ([2]; 20 mg single oral dose, p<0.002): 33.7 min | Latency to Non-Awake (LNA): Improvement compared with placebo ([2]; 20 mg single oral dose, p<0.006): 11.1 min | Wake After Sleep Onset (WASO): Improvement compared with placebo ([2]; 20 mg single oral dose, p<0.02): 24.2 min | Latency to Non-Awake (LNA): Improvement compared with placebo [2, 13]: 14.3 min | Latency to Persistent Sleep (LPS): Improvement compared with placebo [2, 13]: 26.3 min | Total Sleep Time (TST): Improvement compared with placebo [2, 13]: 47.9 min | Wake After Sleep Onset (WASO): Improvement compared with placebo ([2]; 50 mg single oral dose, p=0.001): 33.7 min | Latency to Persistent Sleep (LPS): Improvement compared with placebo ([2]; 100 mg single oral dose, p<0.001): 22.8 min | Latency to Non-Awake (LNA): Improvement compared with placebo ([2]; 100 mg single oral dose, p<0.002): 12.3 min | Total Sleep Time (TST): Improvement compared with placebo ([2]; 100 mg single oral dose, p<0.005): 29.6 min | Wake After Sleep Onset (WASO): Improvement compared with placebo ([2]; 100 mg single oral dose, p=0.081): 17.5 min | tolerability ([2]; all doses (20 mg, 50 mg, 100 mg)): well-tolerated | efficacy of 20 mg relative to 100 mg [2, 14]: comparable or superior to 100 mg | efficacy of 50 mg relative to 100 mg [2, 14]: more efficacious than 100 mg | safety and tolerability, multiple doses ([3]; doses up to 150 mg daily for 28 days, healthy subjects (b53 also elderly subjects with chronic insomnia)): well-tolerated; also recorded: safety and tolerability of Compound A at doses up to 150 mg has been demonstrated | safety and tolerability, single dose ([3]; healthy subjects, single oral dose of 1 mg to 300 mg): safe and well tolerated | number of nocturnal awakenings versus placebo [4]: did not differentiate from placebo | sleep latency versus placebo [4]: did not differentiate from placebo | effect on circadian rhythms [5]: consistently shifted circadian rhythms | effect of covariates on exposure levels ([6]; age, weight, height, gender, creatinine clearance, or ALT baseline levels): not affected | AUC increase with dose ([6]; oral doses 10 to 100 mg): approximately proportional to dose | Cmax increase with dose ([6]; oral doses 10 to 100 mg): approximately proportional to the dose | dependence of aqueous solubility on pH [7]: practically unaffected by pH | solubility in organic solvents ([7]; 95% ethanol, methanol, acetonitrile, ethyl acetate, isopropanol, polyethylene glycols (PEG-300 and PEG-400)): very soluble or freely soluble | native pH of a saturated solution in water ([7]; saturated solution in water): 8.5 | solubility in water ([7]; water): only slightly soluble
